Measurements from PMC9671962 (Communications Biology, 2022).
“And” between values parts separate entries of the source, which are not always exact repeats. Identical values can stand only once.

Experiments:
COG-N-415x = assay: Pre-clinical efficacy study, COG-N-415x PDX; assay type: in vivo; details: single mouse
Method: (§1) Patient demographics and genetic characteristics are listed in (Supplementary Tables 1, 2)[17]. The maximum tolerated dose (MTD) was determined to be 36 MBq/kg administered by intra-peritoneal injection twice weekly for a total of 4 dose fractions and this fractionated regimen was used in all studies (Supplementary Fig. 1)[18],[19]. […] Nine of 11 PDX models were MYCN amplified (Fig. 1b), which is a hallmark of high-risk neuroblastoma. Tumor response was measured as the maximum percent decrease in tumor volume after treatment and event-free survival (EFS) was measured by the area over the curve method with tumor events pre-defined by tumor growth exceeding 2 cm[3],[18].
(§2) The use of 2 mice per arm was based on the previously reported statistical analysis. PDX tumors were implanted into the right flank of 5 to 6-weeks old female mice weighing about 20–25 grams. […] Two additional dose levels of 12, and 24 MBq/kg/fraction were assessed in a subset of models and were administered as stated above. In two models treated at the 24 MBq/kg/fraction dose level we re-challenged tumor response at the time of tumor progression with an additional 4 dose fractions at 24 MBq/kg/fraction given twice weekly. Doses were prepared in 500 µL total volume. An equal volume of saline was used for the vehicle group. Tumors were measured using a digital caliper at the initiation of the study and two times per week during the treatment period. Tumor volumes were calculated as volume = ([…]∗0.5236)/1000. Weights were obtained twice weekly and mice were monitored daily for signs of toxicity. […] Tumor response was assessed by best response defined as greatest reduction in tumor volume following the last dose and is presented as percent change in tumor volume. Event-free survival was determined by area over the curve method that calculates the time to tumor event, which was defined as tumors reaching or exceeding a size ≥ 2 cm^3.
(§3) Animal studies were performed in female mice due to the lack of sex-related differences for [^211At]PTT tolerability from initial dose response studies performed in female and male mice. Female mice were chosen due to their underlying behavior towards other study subjects that reduced nonstudy-related causes for decreased wellness. Pre-clinical efficacy studies were performed through “single mouse testing” to more closely recapitulate a clinical trial. […] Number size for treatment groups was determined by model tumor growth reproducibility, which was previously shown to have less than 5% normal variation with at least two animals. Statistical tests for tumor response and event-free survival (EFS) were performed as a grouped analysis that included all tumor models treated at each respective dose level (n = 2 per model per dose level). Statistical differences between treatment groups for tumor response was performed by paired-model T-test that compared reduction in tumor volume for the 36 MBq/kg dose level vs. 24 MBq/kg or 12 MBq/kg. Event free survival was measured by area over the curve method to quantify time to event, which was set as tumor growth exceeding 2 cm[3],[19]. Differences in EFS were tested across all treated models for each respective dose level, and against untreated controls, by paired-model ANOVA analysis. Associations of drug target expression and response were performed by linear regression analysis of EFS and PARP1 mRNA expression. Genetic signatures were visually presented as a function of EFS and no statistical tests were applied. Blood and marrow toxicity studies were performed with n = 5 sample sizes and powered to detect >20% differences between untreated controls and treated animals. Results were tested for significance by one-way ANOVA comparison from untreated controls. Marrow colony formation assays were performed in replicates of 2 for each mouse subject, dependent on marrow isolation, and all replicates are included in final analyses. […]

[1] = test system: high-risk neuroblastoma patient-derived xenograft (PDX) mouse models; assay: Pre-clinical efficacy study in 11 neuroblastoma PDX mouse models (grouped analysis); assay type: in vivo
Method: as §1, §2, §3

[2] = design: method as in PMID 31072830; details: cited from earlier work
COG-N-453x = assay: Pre-clinical efficacy study, COG-N-453x PDX; assay type: in vivo; details: single mouse
Method: as §1, §2, §3

COG-N-471x = assay: Pre-clinical efficacy study, COG-N-471x PDX; assay type: in vivo; details: 36 MBq/kg/fraction x 4 fractions, single mouse
Method: as §1
The use of 2 mice per arm was based on the previously reported statistical analysis. […] Two additional dose levels of 12, and 24 MBq/kg/fraction were assessed in a subset of models and were administered as stated above. […] Tumors were measured using a digital caliper at the initiation of the study and two times per week during the treatment period. Tumor volumes were calculated as volume = ((diameter^1/2 + diameter^2/2)^3∗0.5236)/1000. Weights were obtained twice weekly and mice were monitored daily for signs of toxicity. […] Tumor response was assessed by best response defined as greatest reduction in tumor volume following the last dose and is presented as percent change in tumor volume. […]

NB-EBC1x = assay: Pre-clinical efficacy study, NB-EBC1x PDX; assay type: in vivo, mouse; details: for EFS by AOC method / Tumor response (% growth from study initiation at ~ 200 mm3): single mouse; for Tumor Volume: NBEBC1 tumor re-challenge (24 MBq/kg/fraction x 4)
Method: as §1, §2, §3

[3] = 12 MBq/kg/fraction x 4 fractions
[4] = 24 MBq/kg/fraction x 4 fractions
[5] = 36 MBq/kg/fraction x 4 fractions
[6] = NB-EBC1x, 24 MBq/kg/fraction x 4 fractions
[7] = NB-EBC1x, 36 MBq/kg/fraction x 4 fractions

SMILES: O=C1NCCn2c(-c3ccc([211At])cc3)nc3cccc1c32 [[^211At]PTT, Astatine-211-parthanatine]
- EFS by AOC method (COG-N-415x; [3]): 14.1951 days and 16.6777 days
- Tumor response (% growth from study initiation at ~ 200 mm3) (COG-N-415x; [3]): 74.1936% and -21.7391%
- EFS by AOC method (COG-N-415x; [4]): 27.6 days and 26.9 days and 27.5972 days and 26.9655 days
- Tumor response (% growth from study initiation at ~ 200 mm3) (COG-N-415x; [4]): -80.7692% and -84.6154%
- EFS by AOC method (COG-N-415x; [5]): 38.3761 days and 73.0746 days
- Tumor response (% growth from study initiation at ~ 200 mm3) (COG-N-415x; [5]): -100% and -94.4444%
- median EFS ([1]; 12 MBq/kg dose level): 23 days
- mouse tumors showing progressing disease after treatment ([1]; 12 MBq/kg dose level (COG-N-415x n = 1, COG-N-453x n = 1)): two
- average decrease in tumor volume ([1]; 12 MBq/kg, n = 8, 4 PDX models): 27.15 ± 42.2%
- median EFS ([1]; 24 MBq/kg dose level): 46 days
- reduction in tumor volume after therapy re-challenge ([1]; 24 MBq/kg re-challenge, COG-N-426x-Felix and NB-EBC1x, n = 2): 100%
- average decrease in tumor volume ([1]; 24 MBq/kg, n = 14, 7 PDX models): 92.6 ± 8.1%
- average decrease in tumor volume ([1]; 36 MBq/kg (MTD), n = 22, 11 PDX models): 98.4 ± 3.3%
- median event free survival (EFS) ([1]; 36 MBq/kg/fraction x4 (MTD)): 74 days
- mice with no measurable tumor/disease at end of study ([1]; MTD, 6/20 mice, >95 days (b1), >90 days): 30%
- complete tumor response, share of tumors ([1]; MTD, 18 of 22 tumors): 81.8%
- outcome of single dose ([2]; 1,480 kBq administered as a single dose): lethal
- outcome of fractionated dose ([2]; 1,480 kBq separated into 4 dose fractions given twice weekly): tolerated
- EFS by AOC method (COG-N-453x; [3]): 19.5598 days and 22.4877 days
- Tumor response (% growth from study initiation at ~ 200 mm3) (COG-N-453x; [3]): 25% and -63.158%
- EFS by AOC method (COG-N-453x; [4]): 43.7943 days and 33.4459 days
- Tumor response (% growth from study initiation at ~ 200 mm3) (COG-N-453x; [4]): -100% and -90.323%
- EFS by AOC method (COG-N-453x; [5]): 48.6067 days and 52.9347 days
- Tumor response (% growth from study initiation at ~ 200 mm3) (COG-N-453x; [5]): -100%
- EFS by AOC method (COG-N-471x): 83.4773 days and 64.9075 days
- Tumor response (% growth from study initiation at ~ 200 mm3) (COG-N-471x): -100%
- EFS1 (initial treatment) (NB-EBC1x; NB-EBC1x, 24 MBq/kg/fraction x 4, re-challenged mouse n = 1): 45
- EFS by AOC method (NB-EBC1x; [6]): 58.4 days
- Tumor response (% growth from study initiation at ~ 200 mm3) (NB-EBC1x; [6]): -100%
- EFS by AOC method (NB-EBC1x; [7]): 90.4 days and 97.6 days and 90.485 days and 97.6925 days
- Tumor response (% growth from study initiation at ~ 200 mm3) (NB-EBC1x; [7]): -100%
- EFS2 (re-challenge treatment) (NB-EBC1x; NB-EBC1x, re-challenge 24 MBq/kg/fraction x 4 at tumor progression, progressing disease): 47
- Tumor Volume (NB-EBC1x; week 0): 0.17 cm3
- Tumor Volume (NB-EBC1x; week 0.6): 0.28 cm3
- Tumor Volume (NB-EBC1x; week 1.1): 0.24 cm3
- Tumor Volume (NB-EBC1x; week 1.6): 0.04 cm3
- Tumor Volume (NB-EBC1x; week 2): 0.01 cm3
- Tumor Volume (NB-EBC1x; week 2.6): 0 cm3
- Tumor Volume (NB-EBC1x; week 3.1): 0 cm3
- Tumor Volume (NB-EBC1x; week 3.6): 0 cm3
- Tumor Volume (NB-EBC1x; week 4.1): 0 cm3
- Tumor Volume (NB-EBC1x; week 4.6): 0 cm3
- Tumor Volume (NB-EBC1x; week 5): 0.05 cm3
- Tumor Volume (NB-EBC1x; week 5.6): 0.32 cm3
- Tumor Volume (NB-EBC1x; week 6): 0.41 cm3
- Tumor Volume (NB-EBC1x; week 6.6): 1.05 cm3
- Tumor Volume (NB-EBC1x; week 7): 0.73 cm3
- Tumor Volume (NB-EBC1x; week 7.6): 0.34 cm3
- Tumor Volume (NB-EBC1x; week 8): 0.16 cm3
- Tumor Volume (NB-EBC1x; week 8.6): 0.03 cm3
- Tumor Volume (NB-EBC1x; week 9): 0.07 cm3
- Tumor Volume (NB-EBC1x; week 9.6): 0.07 cm3
- Tumor Volume (NB-EBC1x; week 10): 0 cm3
- Tumor Volume (NB-EBC1x; week 10.6): 0 cm3
- Tumor Volume (NB-EBC1x; week 11): 0 cm3
- Tumor Volume (NB-EBC1x; week 11.6): 0 cm3
- Tumor Volume (NB-EBC1x; week 12): 0 cm3
- Tumor Volume (NB-EBC1x; week 12.6): 0.02 cm3
- Tumor Volume (NB-EBC1x; week 13): 0.06 cm3
- Tumor Volume (NB-EBC1x; week 13.6): 0.34 cm3
- Tumor Volume (NB-EBC1x; week 14): 0.98 cm3
